pEC50: −log10 of the molar value. Where two headings read alike, the source gives them in different places.

Test [1] deals with HeLa-CASP2/CASP3/GSDMD TKO + CASP2 cells (human caspase-2). Kind of test: ATP-based cell viability (CellTiter-Glo) in HeLa TKO cells with exogenous caspase-2 expression. The note with it: for pEC50: Homo sapiens, HeLa, ATP-based viability, HeLa TKO cells with exogenous caspase-2, titrated compound. From the text:
Specific chemical compounds are powerful tools for dissecting target-related signaling mechanisms in biological contexts ([Beck et al., 2022]; [Zhang et al., 2012]). Prompted by this notion and possibly to identify a compound that could activate the PIDDosome, we designed a cell death-based high-throughput chemical screen in HeLa cells, in which a triple knockout of CASP2, CASP3, and GSDMD were constructed. CASP3 and GSDMD deficiency served as the background to minimize compound-induced nonspecific cytotoxicity and undesired pyroptosis. Using the triple knockout cells as the control, additional expression of exogenous caspase-2 allows the identification of compounds that can specifically activate the caspase-2-BID pathway and trigger apoptosis through caspase-7. […] In accordance with the apoptosis induction, HUHS015 induced evident processing of caspase-2 expressed in the triple-knockout cells (Fig. 3B). This indicated activation of caspase-2 as the protease-deficient C320A mutant of caspase-2 was not processed upon HUHS015 treatment (Fig. 3B). Accordingly, expression of caspase-2 C320A rendered no cell death in response to HUHS015 treatment (Fig. 3B).
Figure 3. Chemical screen identifies HUHS015 as an agonist of human caspase-2. (A) Screen raw data and selectivity analyses of the compound plate containing HUHS015. The ATP-based viability data of both HeLa-CASP2^−/−CASP3^−/−GSDMD^−/− (TKO) (control group) and TKO cells with exogenous caspase-2 expression (experimental group) are shown. The ratios of the cell viability between the two groups are calculated with 3 as a cutoff for positive compound hit selection. (B) HUHS015-induced cell death depends on caspase-2 activity. HeLa TKO cells expressing WT or enzymatically deficient C320A mutant of caspase-2 were treated with HUHS015. ATP-based cell viability and immunoblotting of caspase-2 cleavage are shown. (C and F) The structures and potencies of HUHS15 (C) and its optimized derivative HUHS15-036 (F). HeLa TKO cells with exogenous caspase-2 expression were treated with titrated compounds. The ATP-based viability data were plotted with compound concentration for EC50 calculation. (D) BID is required for HUHS15-induced caspase-2-dependent cell death. […] Processing of caspase-2, -3, and -7 was analyzed by immunoblotting. […] ATP-based cell viability in panels (B and D) is expressed as mean ± s.d. from three technical replicates. […]
Cell viability was measured by the ATP assay using the CellTiter-Glo® Luminescent Cell Viability Assay kit (Promega).
Drug-related Screening Library (25 × 384-well plate, more than 7,000 compounds) was used for the chemical screen in the TKO HeLa cells rescued with exogenous caspase-2 expression. […] After treatment for 12 h, the cell viability was measured by the ATP assay. […]

Test [2] deals with caspase-2-expressing HeLa cells with BID, RAIDD or PIDD1 knockout. Kind of test: Compound-induced caspase-2 activation and cell death in pathway-gene knockout HeLa cells. Type of test: cell-based, human. The method, then: Figure 3. Chemical screen identifies HUHS015 as an agonist of human caspase-2. (A) Screen raw data and selectivity analyses of the compound plate containing HUHS015. The ATP-based viability data of both HeLa-CASP2^−/−CASP3^−/−GSDMD^−/− (TKO) (control group) and TKO cells with exogenous caspase-2 expression (experimental group) are shown. The ratios of the cell viability between the two groups are calculated with 3 as a cutoff for positive compound hit selection. (B) HUHS015-induced cell death depends on caspase-2 activity. HeLa TKO cells expressing WT or enzymatically deficient C320A mutant of caspase-2 were treated with HUHS015. ATP-based cell viability and immunoblotting of caspase-2 cleavage are shown. (C and F) The structures and potencies of HUHS15 (C) and its optimized derivative HUHS15-036 (F). HeLa TKO cells with exogenous caspase-2 expression were treated with titrated compounds. The ATP-based viability data were plotted with compound concentration for EC50 calculation. (D) BID is required for HUHS15-induced caspase-2-dependent cell death. WT and BID^−/− (KO) HeLa TKO cells with exogenous caspase-2 expression, as well as the knockout cells rescued with WT or D60E mutant of BID were treated with HUHS15. ATP-based cell viability and immunoblotting detecting caspase-2 and BID processing are shown. (E) HUHS15-induced caspase-3/7 activation relies on caspase-9 but is independent of PIDDosome. CASP2^−/− (KO) HeLa cells with exogenous caspase-2 expression in the indicated knockout background were treated with HUHS15. Processing of caspase-2, -3, and -7 was analyzed by immunoblotting. (G) Top gRNA hits from the genetic screen of HUHS015-36-induced apoptosis in HeLa TKO cells with exogenous caspase-2 expression. In all the data, indicated cells were treated with the compound for 5 h (for HUHS015-36) or 9 h (for HUHS015) before cell viability measurement and immunoblotting analyses. ATP-based cell viability in panels (B and D) is expressed as mean ± s.d. from three technical replicates. Data in panels (B–F) are representative of three independent experiments. […]

Consider `Cc1ccc2nc(-n3nc(C)c(Cc4ccccc4)c3O)[nH]c2c1` [HUHS015], for which the pEC50 in test [1] (read-out: EC50 (half-maximal effective concentration), caspase-2-mediated cell death) is roughly 5.17. For the same compound, the cell death result in test [2] (BID knockout) is given as “diminished”. Further, the “caspase-2 processing and caspase-3/7 activation” value in test [2] (RAIDD knockout) is on record as “could still induce caspase-2 processing as well as caspase-3/7 activation”.

Consider `Cc1cccc2nc(-n3nc4c(c3O)CCCC4)[nH]c12` [HUHS015-36], for which the pEC50 in test [1] (read-out: EC50, caspase-2-mediated cell death) is 7.22. Also, the “treated cells that underwent apoptosis” value in test [1] (pool of CRISPR-Cas9 mutagenized caspase-2-expressing TKO HeLa cells, genetic screen) was “Over 95%”. Also, the “caspase-2 activation and cell death” value in test [2] (PIDD1 or RAIDD knockout, 5 h) was “neither PIDD1 nor RAIDD deficiency had any effects”.

Values taken from PMC11637483, “Dissecting caspase-2-mediated cell death: from intrinsic PIDDosome activation to chemical modulation” (Protein & Cell, 2024).
